# Experimental data from patent publication US12673954B2 (BRISTOL-MYERS SQUIBB COMPANY, priority 2021, dated 2026).
# Like-named read-outs stand apart in the source and are kept apart here.
# What was measured:
# [1] = test system: IRF pathway, THP1-Dual™ cells; test: STING reporter assay in THP1-Dual cells, IRF pathway (Lucia luciferase, QUANTI-Luc); assay type: cell-based, human; details: THP1-Dual cells, 10% human plasma, 20 hours, Lucia luciferase, 100% activation = 100 μM cGAMP, read-out: IRF (EC50 μM)
# How it was run: (§1)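 Activation normalised between DMSO-only baseline and 100 μM cGAMP maximum, after 20 h compound exposure (starting at 100 μM final) at 37° C, 5% CO2. Supernatant SEAP (QUANTI-Blue, OD620) reports NF-κB; secreted luciferase (QUANTI-Luc, RLU at 5 min) reports IRF.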
# [2] = test system: NF-κB pathway, THP1-Dual™ cells; test: STING reporter assay in THP1-Dual cells, NF-κB pathway (SEAP, QUANTI-Blue); assay type: cell-based, human; details: THP1-Dual cells, 10% human plasma, 20 hours, SEAP, 100% activation = 100 μM cGAMP, read-out: NFkB (EC50 μM)
# How it was run: as §1
Structure (SMILES),EC50 [1] [µM],EC50 [2] [µM],"EC50 ([1]; Homo sapiens, THP1-Dual, 20 h) [µM]","EC50 ([2]; Homo sapiens, THP1-Dual, 20 h) [µM]"
"COC(=O)c1cccc2cc(CNC(=O)c3cnn4cc(Cl)cnc34)oc12 [EXAMPLE 13, Methyl 2-((6-chloropyrazolo[1,5-a]pyrimidine-3-carboxamido)methyl) benzofuran-7-carboxylate]",8.7,11,,
"COC(=O)c1cccc2cc(CNC(=O)c3cncc4cccnc34)oc12 [EXAMPLE 14, Methyl 2-((1,6-naphthyridine-8-carboxamido)methyl)benzofuran-7-carboxylate]",,,3.8,6
"COC(=O)c1cccc2cc(CNC(=O)c3cncnc3)oc12 [EXAMPLE 15, Methyl 2-((pyrimidine-5-carboxamido)methyl)benzofuran-7-carboxylate]",,,44,39
"COC(=O)c1cccc2cc(CNC(=O)c3cncnc3OC)oc12 [EXAMPLE 16, Methyl 2-((4-methoxypyrimidine-5-carboxamido)methyl)benzofuran-7-carboxylate]",,,6.8,9.3
"COC(=O)c1cccc2cc(Cn3cccc(-c4cnco4)c3=O)oc12 [EXAMPLE 17, Methyl 2-((3-(oxazol-5-yl)-2-oxopyridin-1(2H)-yl)methyl)benzofuran-7-carboxylate]",,,48,73
"COC(=O)c1cccc2cc(Cn3cccc(C#N)c3=O)oc12 [EXAMPLE 18, Methyl 2-((3-cyano-2-oxopyridin-1(2H)-yl)methyl)benzofuran-7-carboxylate]",,,79,97
"COC(=O)c1cccc2cc(Cn3ccc4[nH]ncc4c3=O)oc12 [EXAMPLE 19, Methyl 2-({4-oxo-1H,4H,5H-pyrazolo[4,3-c]pyridin-5-yl}methyl)-1-benzofuran-7-carboxylate]",,,47,95
"COC(=O)Cc1cccc2cc(CNC(=O)c3cnn4cccnc34)oc12 [EXAMPLE 20, Methyl 2-(2-((pyrazolo[1,5-a]pyrimidine-3-carboxamido)methyl)benzofuran-7-yl)acetate]",,,48,49
"COC(=O)c1cccc2c(Cl)c(CN3CCc4ccncc4C3=O)oc12 [EXAMPLE 21, Methyl 3-chloro-2-((1-oxo-3,4-dihydro-2,7-naphthyridin-2(1H)-yl)methyl)benzofuran-7-carboxylate]",,,2.9,3.1
"COC(=O)c1cccc2c(Cl)c(CNC(=O)c3cnn4cccnc34)oc12 [EXAMPLE 22, Methyl 3-chloro-2-((pyrazolo[1,5-a]pyrimidine-3-carboxamido)methyl)benzofuran-7-carboxylate]",,,0.6,0.67
"COC(=O)c1ccc(F)c2cc(CNC(=O)c3cnn4cccnc34)oc12 [EXAMPLE 23, methyl 4-fluoro-2-((pyrazolo[1,5-a]pyrimidine-3-carboxamido)methyl)-benzofuran-7-carboxylate]",,,2,1.8
COC(=O)c1ccc(F)c2cc(Cn3cnc4ccncc4c3=O)oc12 [EXAMPLE 25],,,10,15
"COC(=O)c1ccc(Cl)c2cc(CNC(=O)c3cnn4cccnc34)oc12 [EXAMPLE 26, Methyl 4-chloro-2-((pyrazolo[1,5-a]pyrimidine-3-carboxamido)methyl)benzofuran-7-carboxylate]",,,0.63,0.67
"COC(=O)c1ccc(C)c2cc(CN3CCc4ccncc4C3=O)oc12 [EXAMPLE 28, Methyl 4-methyl-2-((1-oxo-3,4-dihydro-2,7-naphthyridin-2(1H)-yl)methyl)benzofuran-7-carboxylate]",,,3.1,3.6
"COC(=O)c1ccc(C)c2cc(Cn3cnc4ccncc4c3=O)oc12 [EXAMPLE 29, Methyl 4-methyl-2-((4-oxopyrido[4,3-d]pyrimidin-3(4H)-yl)methyl)benzofuran-7-carboxylate]",,,3,2.9
"COC(=O)c1ccc(C)c2cc(CN3Cc4ccncc4C3=O)oc12 [EXAMPLE 30, Methyl 4-methyl-2-((3-oxo-1,3-dihydro-2H-pyrrolo[3,4-c]pyridin-2-yl)methyl)benzofuran-7-carboxylate]",,,27,31
"COC(=O)c1ccc(C)c2cc(CNC(=O)c3cnn4cccnc34)oc12 [EXAMPLE 31, Methyl 4-methyl-2-((pyrazolo[1,5-a]pyrimidine-3-carboxamido)methyl)benzofuran-7-carboxylate]",,,1.1,1.6
COC(=O)c1ccc(C)c2cc(Cn3ccc4ccncc4c3=O)oc12 [EXAMPLE 32],,,3.5,3.4

Structure (SMILES),EC50 [1] [µM],EC50 [2] [µM],"EC50 ([1]; Homo sapiens, THP1-Dual, 20 h) [µM]","EC50 ([2]; Homo sapiens, THP1-Dual, 20 h) [µM]"
"COC(=O)c1ccc(OC)c2cc(CNC(=O)c3cnn4cccnc34)oc12 [EXAMPLE 33, Methyl 4-methoxy-2-((pyrazolo[1,5-a]pyrimidine-3-carboxamido)methyl)benzofuran-7-carboxylate]",,,11,16
"COC(=O)c1ccc(O)c2cc(CNC(=O)c3cnn4cccnc34)oc12 [EXAMPLE 34, Methyl 4-hydroxy-2-((pyrazolo[1,5-a]pyrimidine-3-carboxamido)methyl)benzofuran-7-carboxylate]",,,79,> 100
"COC(=O)c1cc(F)cc2cc(CNC(=O)c3cnn4cccnc34)oc12 [EXAMPLE 35, Methyl 5-fluoro-2-((pyrazolo[1,5-a]pyrimidine-3 carboxamido)methyl)benzofuran-7-carboxylate]",,,0.53,0.77
"COC(=O)c1cc(F)cc2cc(CN3CCc4ccncc4C3=O)oc12 [EXAMPLE 36, Methyl 5-fluoro-2-((1-oxo-3,4-dihydro-2,7-naphthyridin-2(1H)-yl)methyl)benzofuran-7-carboxylate]",,,3.6,4.1
"COC(=O)c1cc(F)cc2cc(Cn3ccc4ncncc4c3=O)oc12 [EXAMPLE 37, Methyl 5-fluoro-2-((5-oxopyrido[4,3-d]pyrimidin-6(5H)-yl)methyl)benzofuran-7-carboxylate]",,,11,12
"COC(=O)c1cc(F)cc2cc(Cn3ccc4ccncc4c3=O)oc12 [EXAMPLE 38, Methyl 5-fluoro-2-((1-oxo-2,7-naphthyridin-2(1H)-yl)methyl)benzofuran-7-carboxylate]",,,2.3,2.5
"COC(=O)c1cc(F)cc2cc(Cn3cnc4ccncc4c3=O)oc12 [EXAMPLE 39, Methyl 5-fluoro-2-((4-oxopyrido[4,3-d]pyrimidin-3(4H)-yl)methyl)benzofuran-7-carboxylate]",,,4,3.6
"COC(=O)c1cc(F)cc2cc(CNC(=O)c3cnn4ccc(OC)nc34)oc12 [EXAMPLE 40, Methyl 5-fluoro-2-((5-methoxypyrazolo[1,5-a]pyrimidine-3-carboxamido)methyl)benzofuran-7-carboxylate]",,,2.1,3.2
"COC(=O)c1cc(F)cc2cc(CNC(=O)c3cnc4cccnn34)oc12 [EXAMPLE 41, Methyl 5-fluoro-2-((imidazo[1,2-b]pyridazine-3-carboxamido)methyl)benzofuran-7-carboxylate]",,,> 33,1.3
"COC(=O)c1cc(F)cc2cc(CNC(=O)c3cnccn3)oc12 [EXAMPLE 42, Methyl 5-fluoro-2-((pyrazine-2-carboxamido)methyl)benzofuran-7-carboxylate]",,,4.1,3.6
"COC(=O)c1cc(F)cc2cc(CN3Cc4ccncc4C3=O)oc12 [EXAMPLE 43, Methyl 5-fluoro-2-((3-oxo-1,3-dihydro-2H-pyrrolo[3,4-c]pyridin-2-yl)methyl)benzofuran-7-carboxylate]",,,19,24
"COC(=O)c1cc(F)cc2cc(CN3Cc4ncncc4C3=O)oc12 [EXAMPLE 44, Methyl 5-fluoro-2-((5-oxo-5,7-dihydro-6H-pyrrolo[3,4-d]pyrimidin-6-yl)methyl)benzofuran-7-carboxylate]",,,12,13
"COC(=O)c1cc(F)cc2cc(C(C)NC(=O)c3cnn4cccnc34)oc12 (stereo not drawn) [EXAMPLE 45, Methyl-5-fluoro-2-(1-(pyrazolo[1,5-a]pyrimidine-3-carboxamido)ethyl)benzofuran-7-carboxylate]",,,0.98,0.99
"COC(=O)c1cc(F)cc2cc([C@H](C)NC(=O)c3cnn4cccnc34)oc12 [EXAMPLE 46, Methyl (S)-5-fluoro-2-(1-(pyrazolo[1,5-a]pyrimidine-3-carboxamido)ethyl)benzofuran-7-carboxylate]",,,1.5,1.5
"C=Cc1cc(C(=O)OC)c2oc(CNC(=O)c3cnn4cccnc34)cc2c1 [EXAMPLE 100, Methyl 2-((pyrazolo[1,5-a]pyrimidine-3-carboxamido)methyl)-5-vinylbenzofuran-7-carboxylate]",,,2.5,2.2
"CCc1cc(C(=O)OC)c2oc(CNC(=O)c3cnn4cccnc34)cc2c1 [EXAMPLE 101, Methyl 5-ethyl-2-((pyrazolo[1,5-a]pyrimidine-3-carboxamido)methyl)benzofuran-7-carboxylate]",,,12,10
"COC(=O)c1cc(OC)cc2cc(CNC(=O)c3cnn4cccnc34)oc12 [EXAMPLE 102, Methyl 5-methoxy-2-((pyrazolo[1,5-a]pyrimidine-3-carboxamido)methyl)benzofuran-7-carboxylate]",,,2.5,3
"COC(=O)c1cc(O)cc2cc(CN3CCc4ccncc4C3=O)oc12 [EXAMPLE 103, Methyl 5-hydroxy-2-((1-oxo-3,4-dihydro-2,7-naphthyridin-2(1H)-yl)methyl)benzofuran-7-carboxylate]",,,25,23
